US20170000129A1, “METHOD FOR TREATING MINERAL SLURRIES WITH A BIOCIDE” (priority 2015, published 2017)

Legend:
[1] = test system: bacterial growth in kaolin slurry; assay: Kaolin slurry preservation test: biocide-dosed 65% solids slurry plated on standard method agar, samples as treated; assay type: cell-based, bacteria
Description: (§1) In the comparative testing, dry kaolin was mixed with water to achieve a 65% solid slurry material. This material contained no biocide. The slurry was then split into 200 gram aliquots and dosed with different biocides at different concentration as shown in Tables 1-3. All samples were kept at 50° C. until the end of the testing, which was up to 28 days.
A number of different and known biocides were used in the study and they include glutaraldehyde (glute), 1,2 benzithiazolin-3-one (BIT), tetrahydro-3-5-methyl-2H-1,3,5-thiadizine-2-thione (thione), isothiazoline (ISO), bronopol (BNPD) or orthophenyl phenate (OPP). For shorthand purposes, the study refers to the tradename of the biocide, which is found in the above listing of the biocides. Metam sodium is designated as SMDC and MDTCMA is used without change
(§2) The protocol for the testing of each sample is as follows: • 1) dosed with a recorded level of biocide; • 2) mixed for 24 hours contact time and plated using standard method agar for bacterial growth; • 3) remixed daily for 1 hour and retested for bacterial growth at Day 3; • 4) remixed daily for 1 hour and retested for bacterial growth at Day 7; • 5) remixed daily for 1 hour and retested for bacterial growth at Day 14; • 6) on day 20, samples were split into two containers: one container was inoculated (or challenged) with ˜10^5 cfu/ml bacteria, the other was left “as treated”, the challenge material was obtained from a contaminated kaolin product and is assumed to be representative of the types of bacteria that are seen in the kaolin industry, and the two sets of samples were prepared for Day 21 testing; • 7) both sets were remixed daily for 1 hour and retested for bacterial growth at Day 21; and • 8) both sets remixed daily for 1 hour and retested for bacterial growth at Day 28.
Different contact times were used to see how quickly the bacterial population was effected by the biocide.

[2] = test system: bacteria from a contaminated kaolin product; assay: Kaolin slurry preservation test, challenge: on day 20 samples inoculated with ~10^5 cfu/ml bacteria from a contaminated kaolin product; assay type: cell-based
Description: as §1, §2

CN.CNC(=S)S [MDTCMA, methylammonium monomethyldithiocarbamate]
Log Red, contact time 1 day ([1]; 500 ppm, Table 1): 0 | Log Red, contact time 3 day ([1]; 500 ppm, Table 1): 1 | Log Red, contact time 7 day ([1]; 500 ppm, Table 1): 3 | cfu/mL, contact time 1 day ([1]; 500 ppm, Table 1): 13,140,000 cfu/mL | cfu/mL, contact time 3 day ([1]; 500 ppm, Table 1): 1,880,000 cfu/mL | cfu/mL, contact time 7 day ([1]; 500 ppm, Table 1): 40,000 cfu/mL | performance against the BIT biocide when measuring log reduction ([1]; 500 ppm, Table 1): performed at least as well as the BIT biocide | Log Red, contact time 1 day ([1]; 500 ppm, Table 2): 0 | Log Red, contact time 3 day ([1]; 500 ppm, Table 2): 1 | Log Red, contact time 7 day ([1]; 500 ppm, Table 2): 4 | Log Red, contact time 14 day ([1]; 500 ppm, Table 2): 4 | Log Red, contact time 21 day ([1]; 500 ppm, Table 2): 5 | Log Red, contact time 28 day ([1]; 500 ppm, Table 2): 4 | cfu/mL, contact time 1 day ([1]; 500 ppm, Table 2): 18,840,000 cfu/mL | cfu/mL, contact time 3 day ([1]; 500 ppm, Table 2): 1,960,000 cfu/mL | cfu/mL, contact time 7 day ([1]; 500 ppm, Table 2): 5,600 cfu/mL | cfu/mL, contact time 14 day ([1]; 500 ppm, Table 2): 3,100 cfu/mL | cfu/mL, contact time 21 day ([1]; 500 ppm, Table 2): 1,800 cfu/mL | cfu/mL, contact time 28 day ([1]; 500 ppm, Table 2): 2,500 cfu/mL | Log Red, contact time 1 day ([1]; 1000 ppm, Table 1): 1 | Log Red, contact time 3 day ([1]; 1000 ppm, Table 1): 2 | Log Red, contact time 7 day ([1]; 1000 ppm, Table 1): 5 | cfu/mL, contact time 1 day ([1]; 1000 ppm, Table 1): 7,060,000 cfu/mL | cfu/mL, contact time 3 day ([1]; 1000 ppm, Table 1): 1,680,000 cfu/mL | cfu/mL, contact time 7 day ([1]; 1000 ppm, Table 1): 1,000 cfu/mL | performance against the BIT biocide when measuring log reduction ([1]; 1000 ppm, Table 1): far superior | Log Red, contact time 1 day ([1]; 1000 ppm, Table 2): 0 | Log Red, contact time 3 day ([1]; 1000 ppm, Table 2): 4 | Log Red, contact time 7 day ([1]; 1000 ppm, Table 2): 4 | Log Red, contact time 14 day ([1]; 1000 ppm, Table 2): 4 | Log Red, contact time 21 day ([1]; 1000 ppm, Table 2): 5 | Log Red, contact time 28 day ([1]; 1000 ppm, Table 2): 4 | cfu/mL, contact time 1 day ([1]; 1000 ppm, Table 2): 14,520,000 cfu/mL | cfu/mL, contact time 3 day ([1]; 1000 ppm, Table 2): 7,000 cfu/mL | cfu/mL, contact time 7 day ([1]; 1000 ppm, Table 2): 3,200 cfu/mL | cfu/mL, contact time 14 day ([1]; 1000 ppm, Table 2): 2,500 cfu/mL | cfu/mL, contact time 21 day ([1]; 1000 ppm, Table 2): 1,100 cfu/mL | cfu/mL, contact time 28 day ([1]; 1000 ppm, Table 2): 1,700 cfu/mL | Log Red, contact time 1 day ([1]; 1000 ppm, Table 3): 3 | Log Red, contact time 3 day ([1]; 1000 ppm, Table 3): 2 | Log Red, contact time 7 day ([1]; 1000 ppm, Table 3): 2 | Log Red, contact time 14 day ([1]; 1000 ppm, Table 3): 3 | Log Red, contact time 21 day ([1]; 1000 ppm, Table 3): 2 | Log Red, contact time 28 day ([1]; 1000 ppm, Table 3): 2 | cfu/mL, contact time 1 day ([1]; 1000 ppm, Table 3): 100 cfu/mL | cfu/mL, contact time 3 day ([1]; 1000 ppm, Table 3): 100 cfu/mL | cfu/mL, contact time 7 day ([1]; 1000 ppm, Table 3): 100 cfu/mL | cfu/mL, contact time 14 day ([1]; 1000 ppm, Table 3): 100 cfu/mL | cfu/mL, contact time 21 day ([1]; 1000 ppm, Table 3): 100 cfu/mL | cfu/mL, contact time 28 day ([1]; 1000 ppm, Table 3): 100 cfu/mL | Log Red, contact time 1 day ([1]; 1500 ppm, Table 3): 3 | Log Red, contact time 3 day ([1]; 1500 ppm, Table 3): 2 | Log Red, contact time 7 day ([1]; 1500 ppm, Table 3): 2 | Log Red, contact time 14 day ([1]; 1500 ppm, Table 3): 3 | Log Red, contact time 21 day ([1]; 1500 ppm, Table 3): 2 | Log Red, contact time 28 day ([1]; 1500 ppm, Table 3): 2 | cfu/mL, contact time 1 day ([1]; 1500 ppm, Table 3): 100 cfu/mL | cfu/mL, contact time 3 day ([1]; 1500 ppm, Table 3): 100 cfu/mL | cfu/mL, contact time 7 day ([1]; 1500 ppm, Table 3): 100 cfu/mL | cfu/mL, contact time 14 day ([1]; 1500 ppm, Table 3): 100 cfu/mL | cfu/mL, contact time 21 day ([1]; 1500 ppm, Table 3): 100 cfu/mL | cfu/mL, contact time 28 day ([1]; 1500 ppm, Table 3): 100 cfu/mL | biocide efficacy compared with known biocides ([1]; Table 2, up to 28 days): comparable biocide efficacy as compared to known biocides | biocide effectiveness compared with thione ([1]; Table 3, up to the 28 day testing, not challenge testing, 1000 and 1500 ppm): performed on a par with the thione | Log Red, 21 day Challenge ([2]; 500 ppm, Table 2): 3 | Log Red, 28 day Challenge ([2]; 500 ppm, Table 2): 3 | cfu/mL, 21 day Challenge ([2]; 500 ppm, Table 2): 73,000 cfu/mL | cfu/mL, 28 day Challenge ([2]; 500 ppm, Table 2): 65,000 cfu/mL | Log Red, 21 day Challenge ([2]; 1000 ppm, Table 2): 3 | Log Red, 28 day Challenge ([2]; 1000 ppm, Table 2): 3 | cfu/mL, 21 day Challenge ([2]; 1000 ppm, Table 2): 52,000 cfu/mL | cfu/mL, 28 day Challenge ([2]; 1000 ppm, Table 2): 32,000 cfu/mL | Log Red, 21 day Challenge ([2]; 1000 ppm, Table 3): 2 | Log Red, 28 day Challenge ([2]; 1000 ppm, Table 3): 1 | cfu/mL, 21 day Challenge ([2]; 1000 ppm, Table 3): 196,000 cfu/mL | cfu/mL, 28 day Challenge ([2]; 1000 ppm, Table 3): 3,680,000 cfu/mL | Log Red, 21 day Challenge ([2]; 1500 ppm, Table 3): 3 | Log Red, 28 day Challenge ([2]; 1500 ppm, Table 3): 1 | cfu/mL, 21 day Challenge ([2]; 1500 ppm, Table 3): 18,200 cfu/mL | cfu/mL, 28 day Challenge ([2]; 1500 ppm, Table 3): 2,300,000 cfu/mL | biocide effectiveness in challenge testing ([2]; Table 3, challenge testing): still performed adequately | biocide effectiveness after inoculation, overall result of the studies ([2]; after inoculation): effective biocide
